≈ marks a conversion by molar mass, not a printed value. Where two headings read alike, the source gives them in different places.
What was measured:
[1] = Test Example 3: pharmacokinetic study in cynomolgus monkeys; format: in vivo; conditions: cynomolgus monkey, plasma, 10 mg/kg single intravenous infusion, individual animals
Experimental: An appropriate amount of a test compound was weighed precisely and added to a container, and 0.9% sodium chloride injection and 0.2 M NaOH solution were added thereto in an ice bath until the test compound was completely dissolved, so that a sample solution at a concentration of 2 mg/mL was obtained followed by storage at 2-8° C. for later use.
Species and strain: cynomolgus monkey Animal grade: general grade Animal source: Guangxi Xiongsen Primate Experimental Animal Breeding Development Co., Ltd. Number of the using of laboratory animal: SYXK (Su) 2019-0012
6 cynomolgus monkeys (half male and half female) were selected and randomly divided into 3 groups with 1 animal/sex in each group. The cynomolgus monkeys were administered with the test sample at a dose of 10 mg/kg by the single intravenous infusion. Blood samples were collected from each group of animals at the following time points: before administration, and 5 min, 15 min, 0.5 h, 1 h, 2 h, 4 h, 6 h, and 8 h after administration. In the test, the concentration of each test compound in the plasma of the cynomolgus monkey was detected by the LC-MS/MS method, and the lower limit of quantification of the analysis methods for the plasma samples were all 1 μg/mL. The plasma concentration data were analyzed by the non-compartmental analysis (NCA) of the analysis software for pharmacokinetic data, WinNonlin, pharmacokinetic parameters were calculated, and pharmacokinetic characteristics of the test compounds in cynomolgus monkeys after administration were investigated, with the results shown in the following table

[2] = system: Carbapenem-resistant Acinetobacter baumannii (CRAB, Acinetobacter baumannii); test: Test Example 2: antibacterial activity test (MIC); format: cell-based; conditions: ID-CAMHB, read-out: ID-CAMHB, MIC
In short: (§1)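 MIC by CLSI broth microdilution: compounds serially 2-fold diluted in sterile saline, 32–0.031 μg/mL (11 points, duplicate wells), added to bacterial suspension at 2-8×10^5 CFU/mL, with drug-free growth controls.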

[3] = system: Carbapenem-resistant Enterobacteriaceae (CRE, Klebsiella pneumoniae); test: Test Example 2: antibacterial activity test (MIC); format: cell-based; conditions: ID-CAMHB, read-out: ID-CAMHB, MIC
In short: as §1

[4] = system: Control Strain Pseudomonas aeruginosa ATCC 27853; test: Test Example 2: antibacterial activity test (MIC); format: cell-based; conditions: ATCC27853, ID-CAMHB, ATCC 27853, read-out: ID-CAMHB, MIC
In short: as §1

[5] = system: Carbapenem-resistant Pseudomonas aeruginosa (CRPA, Pseudomonas aeruginosa); test: Test Example 2: antibacterial activity test (MIC); format: cell-based; conditions: ID-CAMHB, read-out: ID-CAMHB, MIC
In short: as §1

[6] = system: Control strain Escherichia coli ATCC 25922; test: Test Example 2: antibacterial activity test (MIC); format: cell-based; conditions: ATCC25922, ID-CAMHB, ATCC 25922, read-out: ID-CAMHB, MIC
In short: as §1

[7] = system: Carbapenem-resistant Pseudomonas aeruginosa (CRPA); test: Test Example 1: antibacterial activity test (MIC); format: cell-based
Experimental: (§2) The test compounds were diluted in a gradient and used for an MIC assay on the test strains. The test compounds at an initial assay concentration of 32 μg/mL were diluted in a 2-fold gradient (11 concentration points in total), and two duplicate wells were set for each concentration. Additional wells without drug dosing were set as growth controls. The minimum inhibitory concentration (MIC) assay was performed with reference to the Clinical and Laboratory Standards Institute (CLSI) guidelines.
(§3) After the frozen strains were subcultured, a single colony was picked and re-suspended in normal saline or sterile water in a tube. The bacterial suspension was vortexed and adjusted to 0.5 McF using a spectrophotometer at the wavelength of 530 nm. The bacterial solution was taken by a pipette, added to a culture medium, diluted and mixed well, and seeded to a bacterial assay plate.
(§4) The 96-well plate was affixed with a disposable sealing film, shaken and mixed well, and visually observed using a plate reader. The minimum concentration of the compounds capable of inhibiting the growth of bacteria was defined as MIC as compared to the growth controls.

[8] = system: Carbapenem-resistant Enterobacteriaceae (CRE); test: Test Example 1: antibacterial activity test (MIC); format: cell-based
Experimental: as §2, §3, §4

[9] = system: Carbapenem-resistant Acinetobacter baumannii (CRAB); test: Test Example 1: antibacterial activity test (MIC); format: cell-based
Experimental: as §2, §3, §4

[10] = both sexes, cynomolgus, iv, 10 mg/kg

Q: What does the source list for `CC(C)(O/N=C(\C(=O)N[C@@H]1C(=O)N2C(C(=O)[O-])=C(C[N+]3(CCNC(=O)c4ccc(O)c(O)c4Cl)CCCC3)CS[C@H]12)c1csc(N)n1)C(=O)O` [Cefiderocol, reference compound]?
A: AUC(0-inf) [1, 10]: 32400 ng·h/mL; AUC(0-t) [1, 10]: 26200 ng·h/mL; clearance [1, 10]: 5.14 mL/min/kg; half-life [1, 10]: 51.6 min; Cmax ([1]; both sexes, cynomolgus, iv, 10 mg/kg, read-out: Cmax): 30500 ng/mL; MRT ([1]; both sexes, cynomolgus, iv, 10 mg/kg, read-out: MRT): 42 min; Vd ([1]; both sexes, cynomolgus, iv, 10 mg/kg, read-out: Vd): 0.381 L/kg; Tmax ([1]; both sexes): 4.8 min; AUC last ([1]; 10 mg/kg): 23940 ng·h/mL; AUCinf ([1]; 10 mg/kg): 28350 ng·h/mL; CL ([1]; 10 mg/kg): 5.8793 mL/min/kg; Cmax ([1]; 10 mg/kg): 24330 ng/mL; Vd ([1]; 10 mg/kg): 0.37963 L/kg; t1/2 ([1]; 10 mg/kg): 45 min; MIC ([2]; FDA-CDC AR-BANK #0036 (strB, OXA-65, OXA-24, strA, sul2)): 0.25 µg/mL (≈ 0.332 µM); MIC ([2]; FDA-CDC AR-BANK #0052 (OXA-58, OXA-100, sul2)): 0.0625 µg/mL (≈ 0.0831 µM); MIC ([2]; FDA-CDC AR-BANK #0063 (OXA-23, OXA-65, OXA-24, sul2)): 8 µg/mL (≈ 10.6 µM); MIC ([2]; FDA-CDC AR-BANK #0070 (OXA-58, OXA-100, sul2)): 0.125 µg/mL (≈ 0.166 µM); MIC ([2]; FDA-CDC AR-BANK #0101 (strB, OXA-65, OXA-24, strA, sul2)): 1 µg/mL (≈ 1.33 µM); MIC ([3]; FDA-CDC AR-BANK #0361 (TEM-1; SHV-12; KPC-2)): 2 µg/mL (≈ 2.66 µM); MIC ([3]; FDA-CDC AR-BANK #0362 (TEM-1; SHV-11; KPC-2)): 0.5 µg/mL (≈ 0.665 µM); MIC ([3]; FDA-CDC AR-BANK #0363 (TEM-1; SHV-12; KPC-2)): 0.25 µg/mL (≈ 0.332 µM); MIC ([3]; FDA-CDC AR-BANK #0438 (aph(3′)-Ia, dfrA12, KPC-3, OmpK35, oqxA, oqxB, SHV-11)): 2 µg/mL (≈ 2.66 µM); MIC ([3]; FDA-CDC AR-BANK #0453 (KPC-3, OmpK35, oqxA, oqxB, SHV-11, TEM-1B)): 1 µg/mL (≈ 1.33 µM); MIC [4]: 0.0625 µg/mL (≈ 0.0831 µM); MIC ([5]; FDA-CDC AR-BANK #0439 (aac(6′)-Il, aadA1b, BCR1, IMP-18, OXA-50)): 0.25 µg/mL (≈ 0.332 µM); MIC ([5]; FDA-CDC AR-BANK #0441 (KPC-2)): 1 µg/mL (≈ 1.33 µM); MIC ([5]; FDA-CDC AR-BANK #0444 (aac(6′)-Il, dfrB5, OXA-4, tet(G), VIM-2)): 2 µg/mL (≈ 2.66 µM); MIC ([5]; FDA-CDC AR-BANK #0457 (aadA6, VIM-2)): 0.125 µg/mL (≈ 0.166 µM); MIC [6]: 0.0625 µg/mL (≈ 0.0831 µM); MIC ([7]; CRPA strain No. 100110): 0.047 µg/mL (≈ 0.0625 µM); MIC ([7]; CRPA strain No. 110163): 1 µg/mL (≈ 1.33 µM); MIC ([7]; CRPA strain No. 110224): 0.75 µg/mL (≈ 0.997 µM); MIC ([7]; CRPA strain No. 110358): 1 µg/mL (≈ 1.33 µM); MIC ([7]; CRPA strain No. 110390): 0.5 µg/mL (≈ 0.665 µM); MIC ([8]; CRE strain No. 100109): 1 µg/mL (≈ 1.33 µM); MIC ([8]; CRE strain No. 100186): 0.5 µg/mL (≈ 0.665 µM); MIC ([8]; CRE strain No. 110502): 12 µg/mL (≈ 16 µM); MIC ([8]; CRE strain No. 110525): 6 µg/mL (≈ 7.98 µM); MIC ([8]; CRE strain No. 311277): 5 µg/mL (≈ 6.65 µM); MIC ([9]; CRAB strain No. 100085): 0.5 µg/mL (≈ 0.665 µM); MIC ([9]; CRAB strain No. 100333): 2 µg/mL (≈ 2.66 µM); MIC ([9]; CRAB strain No. 110440): 1.5 µg/mL (≈ 1.99 µM); MIC ([9]; CRAB strain No. 110477): 1 µg/mL (≈ 1.33 µM); MIC ([9]; CRAB strain No. 110517): 0.5 µg/mL (≈ 0.665 µM)

Reference: patent publication US20230121689A1, “CEPHALOSPORIN ANTIBACTERIAL COMPOUND AND PHARMACEUTICAL APPLICATION THEREOF” (priority 2020, published 2023)
